This note sets out measurements from ChEMBL document CHEMBL4627379, “Production of Antitubercular Depsipeptides via Biosynthetic Engineering of Cinnamoyl Units” (2020).

Each structure is given as a SMILES string.

This assay has as its system Mycobacterium tuberculosis. Put plainly: Antitubercular activity against autoluminescent Mycobacterium tuberculosis H37Rv assessed as reduction in microbial growth by two-fold serial dilution method. The assay is classed as functional.
For `CO[C@H]1/C=C/O[C@@]2(C)Oc3c(C)c(O)c4c(O)c(c(/C=N/N5CCN(C)CC5)c(O)c4c3C2=O)NC(=O)/C(C)=C\C=C\[C@H](C)[C@H](O)[C@@H](C)[C@@H](O)[C@@H](C)[C@H](OC(C)=O)[C@@H]1C` [RIFAMPIN], the minimum inhibitory concentration (MIC) was found to be 0.06 µM.

For `C/C=C/[C@H](O)[C@H](O)c1ccccc1/C=C/C(=O)N[C@@H]1C(=O)N[C@@H](CO)C(=O)N[C@H](CC(C)C)C(=O)N[C@@H]([C@H](O)c2ccccc2)C(=O)N[C@@H](CO)C(=O)N[C@H]([C@@H](C)O)C(=O)N[C@H](CO)C(=O)N[C@H](c2ccc(O)cc2)C(=O)N[C@@H](C(C)C)C(=O)N[C@H](CC(C)C)C(=O)O[C@H]1C`, the MIC was 1.9 µM.

For the compound `Cc1ccccc1/C=C/C(=O)N[C@@H]1C(=O)N[C@@H](CO)C(=O)N[C@@H](Cc2c[nH]c3ccccc23)C(=O)N[C@H](CC(N)=O)C(=O)N[C@@H]([C@@H](O)c2ccccc2)C(=O)N2CCC[C@H]2C(=O)N[C@H](C(C)C)C(=O)NCC(=O)N[C@H](CC(C)C)C(=O)N[C@H](Cc2ccc(O)cc2)C(=O)O[C@@H]1C`, the minimum inhibitory concentration (MIC) stood at 14.8 µM.

As to `C/C=C/C=C/c1ccccc1/C=C/C(=O)N[C@@H]1C(=O)N[C@@H](CO)C(=O)N[C@@H](Cc2c[nH]c3ccccc23)C(=O)N[C@H](CC(N)=O)C(=O)N[C@@H]([C@@H](O)c2ccccc2)C(=O)N2CCC[C@H]2C(=O)N[C@H](C(C)C)C(=O)NCC(=O)N[C@H](CC(C)C)C(=O)N[C@H](Cc2ccc(O)cc2)C(=O)O[C@@H]1C`, the minimal inhibitory concentration (MIC) was 2.3 µM.
